# Measured values published in ChEMBL document CHEMBL5463729, “Data for DCP probe BAY 1753011” (2023).
# Key:
# Conditions in all cases: Compound concentration 10.0 uM
# [1] = target: Dual specificity protein kinase CLK1 (Homo sapiens) (UniProt P49759); test: Inhibition of CLK1(h) at 10.0 µM in the Eurofins Kinase panel
# [2] = target: Ephrin type-A receptor 2 (Homo sapiens) (UniProt P29317); test: Inhibition of EphA2(h) at 10.0 µM in the Eurofins Kinase panel
# [3] = target: Mitogen-activated protein kinase 1 (Homo sapiens) (UniProt P28482); test: Inhibition of MAPK1(h) at 10.0 µM in the Eurofins Kinase panel
# Mitogen-activated protein kinase 1 (Homo sapiens), sequence (P28482 whole entry): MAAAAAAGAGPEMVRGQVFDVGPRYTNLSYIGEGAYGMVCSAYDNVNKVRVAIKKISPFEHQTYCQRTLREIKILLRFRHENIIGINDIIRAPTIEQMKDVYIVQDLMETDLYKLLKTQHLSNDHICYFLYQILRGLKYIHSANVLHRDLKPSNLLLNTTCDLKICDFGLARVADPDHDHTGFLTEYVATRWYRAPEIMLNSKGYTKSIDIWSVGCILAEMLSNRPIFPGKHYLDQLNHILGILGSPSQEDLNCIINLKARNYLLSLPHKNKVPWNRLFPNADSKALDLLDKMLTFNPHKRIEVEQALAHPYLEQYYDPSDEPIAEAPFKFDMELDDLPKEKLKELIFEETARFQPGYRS
# [4] = target: MAP kinase-activated protein kinase 3 (Homo sapiens) (UniProt Q16644); test: Inhibition of MAPKAP-K3(h) at 10.0 µM in the Eurofins Kinase panel
# MAP kinase-activated protein kinase 3 (Homo sapiens), sequence (Q16644 whole entry, looked up): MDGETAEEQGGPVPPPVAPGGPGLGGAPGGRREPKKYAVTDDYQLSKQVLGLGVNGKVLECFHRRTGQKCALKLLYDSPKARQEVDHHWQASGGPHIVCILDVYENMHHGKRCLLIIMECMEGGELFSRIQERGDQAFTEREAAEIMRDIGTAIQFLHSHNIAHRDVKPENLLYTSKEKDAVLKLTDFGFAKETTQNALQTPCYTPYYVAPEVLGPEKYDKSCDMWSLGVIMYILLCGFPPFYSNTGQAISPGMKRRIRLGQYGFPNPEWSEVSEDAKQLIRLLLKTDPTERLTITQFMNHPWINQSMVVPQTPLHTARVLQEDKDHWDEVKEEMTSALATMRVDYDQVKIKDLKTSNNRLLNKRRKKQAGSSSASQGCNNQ
# [5] = target: Serine/threonine-protein kinase MRCK beta (Homo sapiens) (UniProt Q9Y5S2); test: Inhibition of MRCKbeta(h) at 10.0 µM in the Eurofins Kinase panel
# [6] = target: Serine/threonine-protein kinase 38 (Homo sapiens) (UniProt Q15208); test: Inhibition of NDR1(h) at 10.0 µM in the Eurofins Kinase panel
# [7] = target: Serine/threonine-protein kinase Nek2 (Homo sapiens) (UniProt P51955); test: Inhibition of NEK2(h) at 10.0 µM in the Eurofins Kinase panel
# [8] = target: Serine/threonine-protein kinase Nek5 (Homo sapiens) (UniProt Q6P3R8); test: Inhibition of NEK5(h) at 10.0 µM in the Eurofins Kinase panel
# [9] = target: Serine/threonine-protein kinase PAK 1 (Homo sapiens) (UniProt Q13153); test: Inhibition of PAK1(h) at 10.0 µM in the Eurofins Kinase panel
# Serine/threonine-protein kinase PAK 1 (Homo sapiens), sequence (Q13153 whole entry): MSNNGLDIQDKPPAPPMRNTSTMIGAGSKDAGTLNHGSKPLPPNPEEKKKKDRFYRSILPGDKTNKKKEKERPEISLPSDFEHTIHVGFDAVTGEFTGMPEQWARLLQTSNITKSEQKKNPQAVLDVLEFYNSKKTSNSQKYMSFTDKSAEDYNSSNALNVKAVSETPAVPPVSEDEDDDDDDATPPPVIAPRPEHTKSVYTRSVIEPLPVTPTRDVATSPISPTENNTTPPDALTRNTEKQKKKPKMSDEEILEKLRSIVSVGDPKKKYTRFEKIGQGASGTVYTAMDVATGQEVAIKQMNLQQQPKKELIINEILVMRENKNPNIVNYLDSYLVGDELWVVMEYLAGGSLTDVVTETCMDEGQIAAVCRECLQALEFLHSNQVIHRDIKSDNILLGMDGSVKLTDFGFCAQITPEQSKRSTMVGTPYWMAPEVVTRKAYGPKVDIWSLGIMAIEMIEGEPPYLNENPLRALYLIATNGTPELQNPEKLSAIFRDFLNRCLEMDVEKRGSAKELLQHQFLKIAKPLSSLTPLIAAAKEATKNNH
# [10] = target: Protein kinase C iota type (Homo sapiens) (UniProt P41743); test: Inhibition of PKCiota(h) at 10.0 µM in the Eurofins Kinase panel
# [11] = target: T1, cGMP-dependent protein kinase 1 (Homo sapiens) (UniProt Q13976); test: Inhibition of PKG1beta(h) at 10.0 µM in the Eurofins Kinase panel
# T1 sequence (whole entry): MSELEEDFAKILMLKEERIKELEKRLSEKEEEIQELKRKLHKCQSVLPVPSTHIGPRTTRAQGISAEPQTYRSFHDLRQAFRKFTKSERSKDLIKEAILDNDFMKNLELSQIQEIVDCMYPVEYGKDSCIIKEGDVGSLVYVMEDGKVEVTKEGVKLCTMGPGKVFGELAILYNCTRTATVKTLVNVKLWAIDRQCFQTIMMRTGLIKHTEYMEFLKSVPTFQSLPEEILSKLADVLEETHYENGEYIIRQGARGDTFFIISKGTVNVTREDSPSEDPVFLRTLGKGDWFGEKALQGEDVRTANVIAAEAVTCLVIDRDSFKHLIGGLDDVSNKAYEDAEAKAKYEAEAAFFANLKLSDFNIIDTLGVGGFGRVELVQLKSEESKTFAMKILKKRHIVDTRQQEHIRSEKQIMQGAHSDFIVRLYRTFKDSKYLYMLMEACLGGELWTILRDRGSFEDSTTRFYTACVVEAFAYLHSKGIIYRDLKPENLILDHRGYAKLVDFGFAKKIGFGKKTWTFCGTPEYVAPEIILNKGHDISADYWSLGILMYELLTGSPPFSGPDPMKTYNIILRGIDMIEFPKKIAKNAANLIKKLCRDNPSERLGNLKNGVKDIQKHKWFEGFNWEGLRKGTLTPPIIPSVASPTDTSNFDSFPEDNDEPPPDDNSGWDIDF
# [12] = target: cGMP-dependent protein kinase 2 (Homo sapiens) (UniProt Q13237); test: Inhibition of PRKG2(h) at 10.0 µM in the Eurofins Kinase panel
# cGMP-dependent protein kinase 2 (Homo sapiens), sequence (Q13237 whole entry): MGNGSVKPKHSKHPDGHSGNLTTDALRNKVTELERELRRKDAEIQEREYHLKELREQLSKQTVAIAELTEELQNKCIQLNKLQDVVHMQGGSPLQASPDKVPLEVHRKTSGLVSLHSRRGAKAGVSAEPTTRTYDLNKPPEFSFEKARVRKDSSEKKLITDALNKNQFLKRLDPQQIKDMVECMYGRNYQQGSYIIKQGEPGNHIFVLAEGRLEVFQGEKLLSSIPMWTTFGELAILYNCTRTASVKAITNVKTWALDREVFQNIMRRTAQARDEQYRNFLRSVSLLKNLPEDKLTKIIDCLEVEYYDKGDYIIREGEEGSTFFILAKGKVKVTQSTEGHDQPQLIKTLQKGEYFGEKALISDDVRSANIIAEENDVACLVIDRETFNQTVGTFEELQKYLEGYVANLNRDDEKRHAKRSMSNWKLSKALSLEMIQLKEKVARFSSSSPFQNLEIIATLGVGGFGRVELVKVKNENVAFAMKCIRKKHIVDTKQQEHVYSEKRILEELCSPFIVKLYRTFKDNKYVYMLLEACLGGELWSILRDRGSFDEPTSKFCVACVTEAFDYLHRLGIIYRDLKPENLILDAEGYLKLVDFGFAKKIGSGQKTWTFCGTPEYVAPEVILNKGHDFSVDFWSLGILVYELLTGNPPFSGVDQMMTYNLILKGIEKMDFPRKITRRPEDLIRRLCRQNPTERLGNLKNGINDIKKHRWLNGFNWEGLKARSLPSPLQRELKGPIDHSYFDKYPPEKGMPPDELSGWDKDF
# [13] = target: Rho-associated protein kinase 1 (Homo sapiens) (UniProt Q13464); test: Inhibition of ROCK-I(h) at 10.0 µM in the Eurofins Kinase panel
# [14] = target: SRSF protein kinase 1 (Homo sapiens) (UniProt Q96SB4); test: Inhibition of SRPK1(h) at 10.0 µM in the Eurofins Kinase panel
# [15] = target: Tribbles homolog 2 (Homo sapiens) (UniProt Q92519); test: Inhibition of TRB2(h) at 10.0 µM in the Eurofins Kinase panel
# [16] = target: Wee1-like protein kinase 2 (Homo sapiens) (UniProt P0C1S8); test: Inhibition of Wee1B(h) at 10.0 µM in the Eurofins Kinase panel
# [17] = target: Serine/threonine-protein kinase WNK4 (Homo sapiens) (UniProt Q96J92); test: Inhibition of WNK4(h) at 10.0 µM in the Eurofins Kinase panel
# Serine/threonine-protein kinase WNK4 (Homo sapiens), sequence (Q96J92 whole entry): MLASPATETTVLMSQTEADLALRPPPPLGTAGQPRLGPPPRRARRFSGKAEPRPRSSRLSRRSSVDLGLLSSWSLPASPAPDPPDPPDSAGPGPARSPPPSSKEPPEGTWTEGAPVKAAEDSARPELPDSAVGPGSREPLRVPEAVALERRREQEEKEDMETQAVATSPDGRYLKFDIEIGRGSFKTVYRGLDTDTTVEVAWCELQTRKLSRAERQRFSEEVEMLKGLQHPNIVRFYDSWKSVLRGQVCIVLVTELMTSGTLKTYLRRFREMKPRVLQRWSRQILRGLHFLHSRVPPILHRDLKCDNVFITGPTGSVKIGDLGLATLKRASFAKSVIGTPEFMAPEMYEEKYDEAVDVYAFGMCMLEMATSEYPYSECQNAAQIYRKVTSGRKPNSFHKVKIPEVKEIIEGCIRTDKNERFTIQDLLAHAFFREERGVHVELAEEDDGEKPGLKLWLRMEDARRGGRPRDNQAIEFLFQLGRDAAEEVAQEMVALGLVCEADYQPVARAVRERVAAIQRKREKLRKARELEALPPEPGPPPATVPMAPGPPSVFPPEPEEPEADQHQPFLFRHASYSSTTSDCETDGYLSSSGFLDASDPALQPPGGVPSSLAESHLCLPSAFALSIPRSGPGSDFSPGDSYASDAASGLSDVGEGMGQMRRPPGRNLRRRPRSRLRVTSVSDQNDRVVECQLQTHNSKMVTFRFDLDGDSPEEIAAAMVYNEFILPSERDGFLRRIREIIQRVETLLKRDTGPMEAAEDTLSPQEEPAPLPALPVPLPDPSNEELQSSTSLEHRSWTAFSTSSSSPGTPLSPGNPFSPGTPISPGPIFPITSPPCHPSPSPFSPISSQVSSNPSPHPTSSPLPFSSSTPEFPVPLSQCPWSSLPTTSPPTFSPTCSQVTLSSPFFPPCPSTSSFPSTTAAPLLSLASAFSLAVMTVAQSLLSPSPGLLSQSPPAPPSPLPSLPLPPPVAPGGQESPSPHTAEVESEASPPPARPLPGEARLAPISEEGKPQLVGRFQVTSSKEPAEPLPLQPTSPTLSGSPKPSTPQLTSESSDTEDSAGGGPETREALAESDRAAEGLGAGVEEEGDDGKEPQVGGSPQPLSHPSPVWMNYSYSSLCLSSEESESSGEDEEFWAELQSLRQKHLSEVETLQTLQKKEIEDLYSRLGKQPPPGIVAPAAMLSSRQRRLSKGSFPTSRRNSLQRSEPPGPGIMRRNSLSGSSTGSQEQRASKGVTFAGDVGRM
# [18] = target: PI3K p110 beta/p85 alpha (Homo sapiens) (UniProt P27986+P42338); test: Inhibition of PI3 Kinase (p110b/p85a)(h) at 10.0 µM in the Eurofins Kinase panel; format: protein-complex assay
# [19] = target: Phosphatidylinositol 4-phosphate 3-kinase C2 domain-containing subunit alpha (Homo sapiens) (UniProt O00443); test: Inhibition of PI3KC2a(h) at 10.0 µM in the Eurofins Kinase panel
# [20] = target: T2, Muscarinic acetylcholine receptor M5 (Homo sapiens) (UniProt P08912)
# T2 sequence (whole entry): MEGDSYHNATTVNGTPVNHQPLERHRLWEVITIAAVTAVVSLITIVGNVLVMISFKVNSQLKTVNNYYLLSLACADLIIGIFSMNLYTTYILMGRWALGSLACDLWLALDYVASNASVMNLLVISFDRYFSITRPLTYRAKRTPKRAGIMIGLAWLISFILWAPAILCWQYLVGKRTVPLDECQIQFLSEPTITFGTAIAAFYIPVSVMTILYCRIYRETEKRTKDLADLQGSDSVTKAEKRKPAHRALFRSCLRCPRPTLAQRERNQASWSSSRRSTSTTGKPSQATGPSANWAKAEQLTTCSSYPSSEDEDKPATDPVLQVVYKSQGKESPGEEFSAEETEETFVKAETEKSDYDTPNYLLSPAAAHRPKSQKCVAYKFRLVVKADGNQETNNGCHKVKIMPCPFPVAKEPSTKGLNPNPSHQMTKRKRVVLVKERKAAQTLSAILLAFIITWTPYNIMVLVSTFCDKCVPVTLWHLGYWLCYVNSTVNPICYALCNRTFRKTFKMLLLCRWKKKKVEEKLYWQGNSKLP
# [21] = target: Glutamate NMDA receptor (Rattus norvegicus) (UniProt P35439+Q00959+Q00960+Q00961+Q62645+Q8VHN2+Q9R1M7)
# [22] = target: Sodium-dependent serotonin transporter (Homo sapiens) (UniProt P31645)
# [23] = target: D(2) dopamine receptor (Homo sapiens) (UniProt P14416)
# D(2) dopamine receptor (Homo sapiens), sequence (P14416 whole entry): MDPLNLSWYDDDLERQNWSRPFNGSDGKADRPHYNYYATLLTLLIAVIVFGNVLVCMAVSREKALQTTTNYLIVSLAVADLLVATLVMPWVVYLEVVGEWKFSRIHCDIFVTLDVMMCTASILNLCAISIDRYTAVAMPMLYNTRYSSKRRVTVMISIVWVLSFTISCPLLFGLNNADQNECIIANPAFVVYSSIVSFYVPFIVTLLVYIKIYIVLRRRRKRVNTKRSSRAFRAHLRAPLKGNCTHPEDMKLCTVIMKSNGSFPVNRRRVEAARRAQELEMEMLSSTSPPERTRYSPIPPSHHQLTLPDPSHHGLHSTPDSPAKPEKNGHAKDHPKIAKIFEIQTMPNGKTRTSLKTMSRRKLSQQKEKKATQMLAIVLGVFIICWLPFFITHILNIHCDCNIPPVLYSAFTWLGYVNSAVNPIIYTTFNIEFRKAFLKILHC
# [24] = target: 3-phosphoinositide-dependent protein kinase 1 (Homo sapiens) (UniProt O15530); test: Inhibition of PDK1(h) at 10.0 µM in the Eurofins Kinase panel
# Ephrin type-A receptor 2 (Homo sapiens), sequence (P29317 whole entry): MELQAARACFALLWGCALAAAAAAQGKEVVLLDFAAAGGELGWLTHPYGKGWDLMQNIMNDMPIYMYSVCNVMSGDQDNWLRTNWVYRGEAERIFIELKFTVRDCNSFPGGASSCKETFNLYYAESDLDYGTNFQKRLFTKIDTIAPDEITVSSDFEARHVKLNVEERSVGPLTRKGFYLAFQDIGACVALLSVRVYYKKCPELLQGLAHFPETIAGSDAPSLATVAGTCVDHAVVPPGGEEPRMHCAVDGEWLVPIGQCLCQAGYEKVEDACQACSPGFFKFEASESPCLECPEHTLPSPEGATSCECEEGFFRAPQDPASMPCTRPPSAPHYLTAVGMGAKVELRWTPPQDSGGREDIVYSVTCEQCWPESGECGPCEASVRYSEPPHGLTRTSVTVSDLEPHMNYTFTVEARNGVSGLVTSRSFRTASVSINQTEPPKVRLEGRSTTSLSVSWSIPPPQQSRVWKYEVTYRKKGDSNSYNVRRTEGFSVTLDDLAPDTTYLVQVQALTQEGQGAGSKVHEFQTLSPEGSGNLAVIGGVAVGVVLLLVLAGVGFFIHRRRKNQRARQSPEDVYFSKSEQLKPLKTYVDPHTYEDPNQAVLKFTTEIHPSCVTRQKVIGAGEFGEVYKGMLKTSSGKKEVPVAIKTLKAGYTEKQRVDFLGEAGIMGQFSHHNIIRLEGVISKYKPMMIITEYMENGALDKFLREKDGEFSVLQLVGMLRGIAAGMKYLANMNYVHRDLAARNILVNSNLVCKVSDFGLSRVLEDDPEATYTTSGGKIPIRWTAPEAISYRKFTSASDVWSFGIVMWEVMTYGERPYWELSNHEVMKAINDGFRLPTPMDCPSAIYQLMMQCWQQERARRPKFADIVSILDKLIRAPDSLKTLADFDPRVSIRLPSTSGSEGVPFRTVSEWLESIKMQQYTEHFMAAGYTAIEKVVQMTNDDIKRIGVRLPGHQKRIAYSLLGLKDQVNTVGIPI
SMILES,inhibition [1],inhibition [2],inhibition [3],inhibition [4],inhibition [5],inhibition [6],inhibition [7],inhibition [8],inhibition [9],inhibition [10],inhibition [11],inhibition [12],inhibition [13],inhibition [14],inhibition [15],inhibition [16],inhibition [17],inhibition [18],inhibition [19],inhibition [20],further results
O=c1n(Cc2cncn2-c2cccc(Cl)c2)nc(-c2ccc(Cl)cc2)n1C[C@H](O)C(F)(F)F,7.05%,-5.2%,-0.83%,-3.79%,-6.31%,-2.95%,-1.06%,8.71%,5.16%,0.21%,-1.12%,-3.28%,-3.19%,-4.61%,3.48%,7.62%,2.45%,-2.42%,27.5%,-5.11%,inhibition [21]: -4%; inhibition [22]: 1%; inhibition [23]: 16%; inhibition [24]: -8.39%
C[C@H](O)c1nc(Cn2nc(-c3ccc(Cl)cc3)n(C[C@H](O)C(F)(F)F)c2=O)nn1-c1cccc(Cl)c1 [PECAVAPTAN],7.77%,-2%,7.33%,-7.04%,-2.21%,-4.67%,3.19%,6.17%,5.15%,-3.93%,1.79%,-2.94%,-2.67%,-6.76%,-2.41%,7.48%,10.5%,-1.96%,11.6%,-1.8%,inhibition [21]: -10%; inhibition [22]: 6%; inhibition [23]: 14%; inhibition [24]: -3.55%
